Source: patent publication US20190330224A1, “ACC INHIBITORS AND USES THEREOF” (Gilead Apollo, LLC, priority 2015, published 2019)
≈ marks a conversion by molar mass, not a printed value. Where two headings read alike, the source gives them in different places.

Columns and labels:
Diplodia maydis (Dm) = assay: Growth inhibition assay of fungal pathogens, Dm; assay type: cell-based; conditions: Stenocarpella maydis, read-out: Concentration at 90% Inhibition, Dm
Method: (§1) Compounds of the present invention were evaluated in a growth inhibition assay to determine the ability to control the growth of fungal pathogens, such as Botrtyis cinerea (Bc). Collectotrichum graminicola (Cg), Diplodia maydis (Dm), Fusarium moniliforme (Fm), Fusarium virguliforme (Fv), Phytophthora capsici (Pc), Rhizoctonia solani (Rs), and Septoria tritici (St). Compounds to be tested were dissolved in DMSO at 2.5 mg/ml to produce compound stock solutions (“stocks”). Stocks were diluted with DMSO by a five-fold dilution in a 96-well stock plate, and two sets of final concentrations of 50, 10, and 2 ppm or 2, 0.4, and 0.08 ppm were obtained in vitro. A set of positive controls was also prepared, with various concentrations of Soraphen (2, 0.4, and 0.08 ppm), Metalaxyl (1.1, 0.22, and 0.04 ppm), and Metconazole (2, 0.4, and 0.08 ppm or 0.2, 0.04, and 0.008 ppm) after the five-fold dilutions. Negative controls on each plate included 2% DMSO, water, and a blank (media+2% DMSO). Fungal spores were isolated from previously sub-cultured plates of Botrtyis cinerea (Bc), Collectotrichum graminicola (Cg), Diplodia maydis (Dm), Fusarium moniliforme (Fm), Fusarium virguliforme (Fv), Phytophthora capsici (Pc), and Septoria tritici (St). The isolated spores were diluted to individual concentrations with a 17% V8 liquid media. For Rhizoctonia solani (Rs) and Pythium irregulare, 1.5 mm mycelial plugs were used in place of spores and ¼ Potato Dextrose Broth (PDB) was used for dilution. The spore concentrations and plug sizes were based on growth curves generated at 48 hours for each pathogen. In a second 96-well plate, the spores or mycelial plugs, media, diluted compound solutions, and controls were combined. Once the compound was added, a true final concentration of compound in each well was measured by an OD600 reading, which adjusted for any compound precipitation that might have occurred in the well. Plate readings were repeated at both 24 and 48 hours. The blank negative control was used as a background subtraction. Additional visual ratings were performed at both 24 and 48 hours for checking on precipitation and confirming efficacy. Visual and OD600 ratings of the compounds at 48 hours were compared to the 2% DMSO negative control, and the percent of pathogen growth inhibition was determined based on those values.

[1] = tested on: Fusarium moniliforme (Fm); assay: Growth inhibition assay of fungal pathogens, Fm; assay type: cell-based; conditions: Fusarium verticillioides, read-out: Concentration at 90% Inhibition, Fm
Method: as §1

Botrtyis cinerea (Bc) = assay: Growth inhibition assay of fungal pathogens, Bc; assay type: cell-based; conditions: read-out: Concentration at 90% Inhibition, Bc
Method: as §1

Human ACC2 = Human ACC2 (Homo sapiens, UniProt O00763); assay: In vitro ACC2 inhibition assay (ADP-Glo), human ACC2; assay type: biochemical; conditions: 5 nM ACC2, 20 μM ATP, 20 μM acetyl-CoA
Human ACC2, sequence (O00763 whole entry): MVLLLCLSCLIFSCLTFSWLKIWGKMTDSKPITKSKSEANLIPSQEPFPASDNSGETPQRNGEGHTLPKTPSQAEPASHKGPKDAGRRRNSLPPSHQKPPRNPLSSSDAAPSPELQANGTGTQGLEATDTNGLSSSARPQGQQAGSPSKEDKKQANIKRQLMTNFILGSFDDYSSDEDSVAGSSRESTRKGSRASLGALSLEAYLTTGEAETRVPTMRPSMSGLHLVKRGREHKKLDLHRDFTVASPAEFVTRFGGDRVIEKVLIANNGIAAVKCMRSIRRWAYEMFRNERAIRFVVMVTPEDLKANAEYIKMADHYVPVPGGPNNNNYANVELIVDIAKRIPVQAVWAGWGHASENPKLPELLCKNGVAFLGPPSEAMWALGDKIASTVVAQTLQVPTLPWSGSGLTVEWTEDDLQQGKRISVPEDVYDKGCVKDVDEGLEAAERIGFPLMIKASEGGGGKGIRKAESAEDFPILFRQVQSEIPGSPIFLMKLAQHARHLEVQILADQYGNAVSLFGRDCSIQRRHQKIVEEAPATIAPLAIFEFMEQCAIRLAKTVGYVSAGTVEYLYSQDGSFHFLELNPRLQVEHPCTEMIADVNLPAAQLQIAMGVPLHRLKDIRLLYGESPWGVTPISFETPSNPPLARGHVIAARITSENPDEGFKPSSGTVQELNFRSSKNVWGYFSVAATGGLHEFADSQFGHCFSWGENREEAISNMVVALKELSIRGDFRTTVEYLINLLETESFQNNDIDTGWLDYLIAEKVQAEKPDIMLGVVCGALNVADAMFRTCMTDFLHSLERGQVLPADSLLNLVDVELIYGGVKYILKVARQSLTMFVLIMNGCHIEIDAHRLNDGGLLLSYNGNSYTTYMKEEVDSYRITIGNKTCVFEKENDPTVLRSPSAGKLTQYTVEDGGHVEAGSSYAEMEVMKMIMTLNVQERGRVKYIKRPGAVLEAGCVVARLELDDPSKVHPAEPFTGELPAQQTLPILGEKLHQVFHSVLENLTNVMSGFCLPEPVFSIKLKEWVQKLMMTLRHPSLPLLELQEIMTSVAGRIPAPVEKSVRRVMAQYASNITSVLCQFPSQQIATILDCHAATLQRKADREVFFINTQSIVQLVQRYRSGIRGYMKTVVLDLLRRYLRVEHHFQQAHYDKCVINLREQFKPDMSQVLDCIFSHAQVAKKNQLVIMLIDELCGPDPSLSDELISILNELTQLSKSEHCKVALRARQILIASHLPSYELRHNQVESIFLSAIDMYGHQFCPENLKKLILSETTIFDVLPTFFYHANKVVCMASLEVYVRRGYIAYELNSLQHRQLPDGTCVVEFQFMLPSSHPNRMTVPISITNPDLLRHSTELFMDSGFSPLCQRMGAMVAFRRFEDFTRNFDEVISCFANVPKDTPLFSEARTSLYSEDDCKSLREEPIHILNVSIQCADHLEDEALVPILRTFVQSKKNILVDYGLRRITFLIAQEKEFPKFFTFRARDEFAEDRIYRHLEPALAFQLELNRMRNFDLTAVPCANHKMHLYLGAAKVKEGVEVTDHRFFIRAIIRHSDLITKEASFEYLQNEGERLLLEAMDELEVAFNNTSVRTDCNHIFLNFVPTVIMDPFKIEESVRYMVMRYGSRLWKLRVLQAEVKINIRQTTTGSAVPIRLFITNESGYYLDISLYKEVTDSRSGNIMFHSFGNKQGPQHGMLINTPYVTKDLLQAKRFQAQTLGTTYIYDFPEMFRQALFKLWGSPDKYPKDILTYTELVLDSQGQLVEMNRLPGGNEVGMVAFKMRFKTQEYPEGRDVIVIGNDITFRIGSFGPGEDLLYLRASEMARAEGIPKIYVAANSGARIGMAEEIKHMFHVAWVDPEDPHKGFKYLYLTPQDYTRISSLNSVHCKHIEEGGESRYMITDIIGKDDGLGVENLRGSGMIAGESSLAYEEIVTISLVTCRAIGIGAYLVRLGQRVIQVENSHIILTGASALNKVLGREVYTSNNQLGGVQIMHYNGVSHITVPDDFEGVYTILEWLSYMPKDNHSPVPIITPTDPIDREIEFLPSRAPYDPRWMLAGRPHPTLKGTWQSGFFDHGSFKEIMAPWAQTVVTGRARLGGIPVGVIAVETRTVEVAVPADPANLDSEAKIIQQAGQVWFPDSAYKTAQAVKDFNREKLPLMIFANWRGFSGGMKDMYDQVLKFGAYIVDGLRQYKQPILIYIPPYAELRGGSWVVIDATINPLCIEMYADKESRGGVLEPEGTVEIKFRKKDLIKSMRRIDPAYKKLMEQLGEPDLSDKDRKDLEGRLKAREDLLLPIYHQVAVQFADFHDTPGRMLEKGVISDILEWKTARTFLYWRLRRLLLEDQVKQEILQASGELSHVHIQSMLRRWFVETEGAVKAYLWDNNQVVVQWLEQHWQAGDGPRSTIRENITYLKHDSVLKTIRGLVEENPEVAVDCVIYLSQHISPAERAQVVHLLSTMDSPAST

[2] = compound concentration 10 ppm, foliar spray, evaluated 7 days after inoculation
Rhizoctonia solani (Rs) = assay: Growth inhibition assay of fungal pathogens, Rs; assay type: cell-based; conditions: read-out: Concentration at 90% Inhibition, Rs
Method: as §1

Fungal ACC2 = Fungal ACC2 (UniProt Q00955); conditions: read-out: Fungal ACC2 (IC50, in vitro ACC2 inhibition)
Fungal ACC2, sequence (Q00955 whole entry): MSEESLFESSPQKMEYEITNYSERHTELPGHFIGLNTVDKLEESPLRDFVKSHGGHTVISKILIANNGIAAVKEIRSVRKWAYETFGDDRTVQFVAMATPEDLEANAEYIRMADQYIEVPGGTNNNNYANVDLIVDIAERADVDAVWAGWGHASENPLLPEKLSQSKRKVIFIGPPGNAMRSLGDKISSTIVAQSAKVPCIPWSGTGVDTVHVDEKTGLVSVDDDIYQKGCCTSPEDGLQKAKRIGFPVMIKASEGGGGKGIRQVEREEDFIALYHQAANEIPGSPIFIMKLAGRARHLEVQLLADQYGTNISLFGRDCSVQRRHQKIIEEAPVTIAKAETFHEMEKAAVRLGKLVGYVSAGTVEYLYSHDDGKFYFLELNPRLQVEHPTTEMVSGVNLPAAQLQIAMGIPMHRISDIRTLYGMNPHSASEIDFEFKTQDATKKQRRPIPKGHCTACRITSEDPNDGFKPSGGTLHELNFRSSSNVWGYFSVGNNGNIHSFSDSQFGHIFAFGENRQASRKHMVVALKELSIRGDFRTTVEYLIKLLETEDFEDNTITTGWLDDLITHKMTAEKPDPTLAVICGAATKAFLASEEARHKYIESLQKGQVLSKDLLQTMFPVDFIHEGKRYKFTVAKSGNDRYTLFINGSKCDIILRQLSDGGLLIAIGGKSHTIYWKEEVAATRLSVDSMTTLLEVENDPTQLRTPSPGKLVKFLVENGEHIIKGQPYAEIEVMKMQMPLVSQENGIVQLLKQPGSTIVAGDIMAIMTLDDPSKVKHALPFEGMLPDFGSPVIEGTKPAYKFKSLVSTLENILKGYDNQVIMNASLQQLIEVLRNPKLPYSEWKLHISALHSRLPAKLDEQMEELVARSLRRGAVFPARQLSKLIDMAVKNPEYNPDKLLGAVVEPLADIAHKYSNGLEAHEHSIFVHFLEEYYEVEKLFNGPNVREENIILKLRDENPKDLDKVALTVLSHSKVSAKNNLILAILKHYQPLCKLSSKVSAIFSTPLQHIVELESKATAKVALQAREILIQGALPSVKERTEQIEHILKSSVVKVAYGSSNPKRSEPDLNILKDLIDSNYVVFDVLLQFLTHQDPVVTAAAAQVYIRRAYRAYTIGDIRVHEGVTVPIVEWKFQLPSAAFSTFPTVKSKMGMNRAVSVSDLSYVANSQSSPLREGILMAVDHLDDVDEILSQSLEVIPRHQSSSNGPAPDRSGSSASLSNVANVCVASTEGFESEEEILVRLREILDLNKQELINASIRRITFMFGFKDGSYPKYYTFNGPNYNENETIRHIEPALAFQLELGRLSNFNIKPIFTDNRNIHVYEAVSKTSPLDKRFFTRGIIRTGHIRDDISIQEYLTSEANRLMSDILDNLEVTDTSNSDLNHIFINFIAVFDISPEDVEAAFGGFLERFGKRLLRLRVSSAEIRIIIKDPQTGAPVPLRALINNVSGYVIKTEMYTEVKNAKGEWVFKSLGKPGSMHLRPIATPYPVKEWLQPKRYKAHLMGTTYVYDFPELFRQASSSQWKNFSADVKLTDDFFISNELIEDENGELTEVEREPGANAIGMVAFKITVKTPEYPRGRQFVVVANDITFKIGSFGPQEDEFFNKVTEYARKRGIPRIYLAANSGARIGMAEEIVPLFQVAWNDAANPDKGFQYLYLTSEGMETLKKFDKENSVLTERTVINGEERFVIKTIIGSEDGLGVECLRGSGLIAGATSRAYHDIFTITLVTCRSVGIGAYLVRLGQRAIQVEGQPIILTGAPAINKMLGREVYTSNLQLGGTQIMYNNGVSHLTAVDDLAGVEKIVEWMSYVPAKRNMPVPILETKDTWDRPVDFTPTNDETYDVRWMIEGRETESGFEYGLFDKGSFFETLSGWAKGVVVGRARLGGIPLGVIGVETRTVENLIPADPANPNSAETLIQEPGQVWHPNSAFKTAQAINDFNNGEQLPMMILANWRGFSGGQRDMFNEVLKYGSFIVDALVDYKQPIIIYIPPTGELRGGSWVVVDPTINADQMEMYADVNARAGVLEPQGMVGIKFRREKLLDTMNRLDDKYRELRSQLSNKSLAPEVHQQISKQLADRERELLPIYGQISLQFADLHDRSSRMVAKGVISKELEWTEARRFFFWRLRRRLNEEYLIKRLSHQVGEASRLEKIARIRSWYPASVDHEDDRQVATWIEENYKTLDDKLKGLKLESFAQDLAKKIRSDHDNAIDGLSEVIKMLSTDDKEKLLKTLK

[3] = tested on: Blumeria graminis f sp. hordei; assay: Foliar protection test, barley powdery mildew control; assay type: in vivo, Blumeria graminis f sp. hordei on Hordeum vulgare cv. Perry; conditions: 168 h, read-out: Barley Powdery Mildew Control at 50 ppm
Method: Compounds of the present invention were evaluated in a foliar protection test to determine the ability to control barley powdery mildew. Plants (Hordeum vulgare cv. Perry) were grown for 6 days in 2-inch square pots containing Metromix 200 medium amended with fertilizer. For propagation, plants were maintained in a growth chamber at conditions of 20 to 21° C., 16 hour light cycle, 400 uM of light, 70% humidity, and with sub-irrigation as needed. After inoculation with the pathogen of Blumeria graminis f sp. hordei, plants were kept at conditions of 20 to 22° C., 70% relative humidity, and 200 uM of light to facilitate infection and disease development. At 6 days after planting (1st true leaf fully expanded), the test compounds were dissolved in a solution of 5% acetone and 0.005% Tween 80 surfactant. An atomizer was used for applying the solution onto both sides of the leaves until thoroughly wetted. The amount of the compound applied to the leaves was typically 200, 100, 50, 10, or 2 ppm, but it may vary. At 24 hours after treatment, the plants were moved to a cooler chamber and inoculated by shaking well-colonized, untreated stock plants above the treated plants. This allowed producing a settling cloud of spores and resulting in uniform infection. Efficacy was evaluated in 7 days later by examining leaves for colonization and growth of mildew. Table 5 lists the results of barley powdery mildew control at a compound concentration of 50 ppm or 10 ppm. Compounds having an activity designated as “AA” provided a compound having >85% control of barley powdery mildew; compounds having an activity designated as “A” provided a compound having from 70% to 84% control of barley powdery mildew; compounds having an activity designated as “B” provided a compound having from 50 to 69% control of barley powdery mildew; compounds having an activity designated as “C” provided a compound having from 25 to 49% control of barley powdery mildew; and compounds having an activity designated as “D” provided a compound having <25% control of barley powdery mildew.

[4] = tested on: Collectotrichum graminicola (Cg); assay: Growth inhibition assay of fungal pathogens, Cg; assay type: cell-based; conditions: read-out: Concentration at 90% Inhibition, Cg
Method: as §1

[5] = tested on: Phytophthora capsici (Pc); assay: Growth inhibition assay of fungal pathogens, Pc; assay type: cell-based; conditions: read-out: Concentration at 90% Inhibition, Pc
Method: as §1

Septoria tritici (St) = assay: Growth inhibition assay of fungal pathogens, St; assay type: cell-based; conditions: Zymoseptoria tritici, read-out: Concentration at 90% Inhibition, St
Method: as §1

[6] = tested on: Fusarium virguliforme (Fv); assay: Growth inhibition assay of fungal pathogens, Fv; assay type: cell-based; conditions: read-out: Concentration at 90% Inhibition, Fv
Method: as §1

C. krusei ATCC 6258 = assay: Anti-Fungal Activity Assay (broth microtiter MIC), C. krusei; assay type: cell-based, Candida krusei; conditions: Pichia kudriavzevii, ATCC6258, 48 h, 3 replicates; MIC recorded at 48 h; read-out: MIC C. krusei ATCC 6258
Outline: (§2)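 MIC taken as visual growth inhibition versus the growth control, mostly at 48 h (soraphen also at 24 h). Following CLSI M27-A3, colonies grown overnight at 35° C on Sabouraud dextrose agar were suspended in RPMI 1640+MOPS; test agents came from 1 mg/mL DMSO stocks.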

[7] = tested on: C. parapsilosis ATCC 22019; assay: Anti-Fungal Activity Assay (broth microtiter MIC), C. parapsilosis; assay type: cell-based, Candida parapsilosis; conditions: Lodderomyces parapsilosis, ATCC22019, 48 h, 3 replicates; MIC recorded at 48 h; read-out: MIC C. parapsilosis ATCC 22019
Outline: as §2

C. albicans ATCC 90028 = assay: Anti-Fungal Activity Assay (broth microtiter MIC), C. albicans; assay type: cell-based, Candida albicans; conditions: Candida albicans, ATCC90028, 48 h, 3 replicates; MIC recorded at 48 h; read-out: MIC C. albicans ATCC 90028
Outline: as §2

[8] = compound concentration 50 ppm, foliar spray, evaluated 7 days after inoculation

IC50 (Human ACC2) [nM]	IC90 (Diplodia maydis (Dm); 48 hours) [µg/mL]	IC90 ([1]; 48 hours) [µg/mL]	IC90 (Botrtyis cinerea (Bc); 48 hours) [µg/mL]	IC90 (Rhizoctonia solani (Rs); 48 hours) [µg/mL]	IC90 ([4]; 48 hours) [µg/mL]	IC90 ([5]; 48 hours) [µg/mL]	IC90 (Septoria tritici (St); 48 hours) [µg/mL]	IC90 ([6]; 48 hours) [µg/mL]	MIC (C. krusei ATCC 6258) [µg/mL]	MIC [7] [µg/mL]	MIC (C. albicans ATCC 90028) [µg/mL]	SMILES	IC90 (Diplodia maydis (Dm); 48 h) [µg/mL]	IC90 ([1]; 48 h) [µg/mL]	IC90 (Botrtyis cinerea (Bc); 48 h) [µg/mL]	Barley Powdery Mildew Control at 10 ppm [2]	IC90 (Rhizoctonia solani (Rs); 48 h) [µg/mL]	IC50 (Fungal ACC2) [nM]	pest or weed control at 50 ppm ([3]; foliar) [%]	pest or weed control at 50 ppm [3, 8] [%]	also measured
10 to 100	10 (≈ 16.6 µM)	2 (≈ 3.33 µM)	2 (≈ 3.33 µM)	2 (≈ 3.33 µM)	10 (≈ 16.6 µM)	> 50	> 50	10 (≈ 16.6 µM)	2.1 to 4 (≈ 3.5 to 6.66 µM)	2.1 to 4 (≈ 3.5 to 6.66 µM)	2.1 to 4 (≈ 3.5 to 6.66 µM)	COc1ccc(F)cc1[C@H](Cn1c(=O)n([C@@H]2CCCN(C(C)C)C2=O)c(=O)c2c(C)c(-n3nccn3)sc21)OCCO [Compound I-75, 1-((R)-2-(5-fluoro-2-methoxyphenyl)-2-(2-hydroxy-ethoxy)ethyl)-3-((R)-1-isopropyl-2-oxopiperidin-3-yl)-5-methyl-6-(2H-1,2,3-triazol-2-yl)thieno[2,3-d]pyrimidine-2,4(1H,3H)-dione]	–	–	–	D (provided a compound having <25% control of barley powdery mildew)	–	–	–	50 to 69	–
2 to 10	10 (≈ 17 µM)	2 (≈ 3.41 µM)	2 (≈ 3.41 µM)	2 (≈ 3.41 µM)	2 (≈ 3.41 µM)	> 50	> 50	2 (≈ 3.41 µM)	2.1 to 4 (≈ 3.58 to 6.82 µM)	2.1 to 4 (≈ 3.58 to 6.82 µM)	2.1 to 4 (≈ 3.58 to 6.82 µM)	COc1ccc(F)cc1[C@H](Cn1c(=O)n([C@H]2CCN(C(C)C)C2=O)c(=O)c2c(C)c(-n3nccn3)sc21)OCCO [Compound I-84, 1-((R)-2-(5-fluoro-2-methoxyphenyl)-2-(2-hydroxy-ethoxy)ethyl)-3-((S)-1-isopropyl-2-oxopyrrolidin-3-yl)-5-methyl-6-(2H-1,2,3-triazol-2-yl)thieno[2,3-d]pyrimidine-2.4(1H,3H)-dione]	–	–	–	D (provided a compound having <25% control of barley powdery mildew)	–	–	–	50 to 69	–
10 to 100	2 (≈ 3.41 µM)	2 (≈ 3.41 µM)	2 (≈ 3.41 µM)	2 (≈ 3.41 µM)	2 (≈ 3.41 µM)	> 50	> 50	2 (≈ 3.41 µM)	2.1 to 4 (≈ 3.58 to 6.82 µM)	2.1 to 4 (≈ 3.58 to 6.82 µM)	2.1 to 4 (≈ 3.58 to 6.82 µM)	COc1ccc(F)cc1[C@H](Cn1c(=O)n([C@@H]2CCN(C(C)C)C2=O)c(=O)c2c(C)c(-n3nccn3)sc21)OCCO [Compound I-85, 1-((R)-2-(5-fluoro-2-methoxyphenyl)-2-(2-hydroxy-ethoxy)ethyl)-3-((S)-1-isopropyl-2-oxopyrrolidin-3-yl)-5-methyl-6-(2H-1,2,3-triazol-2-1)thieno[2,3-d]pyrimidine-2,4(1H,3H)-dione]	–	–	–	C (provided a compound having from 25 to 49% control of barley powdery mildew)	–	–	–	70 to 84	–

The next lines start with the compound.

SMILES	IC50 (Human ACC2) [nM]	IC90 (Diplodia maydis (Dm); 48 hours) [µg/mL]	IC90 ([1]; 48 hours) [µg/mL]	IC90 (Botrtyis cinerea (Bc); 48 hours) [µg/mL]	IC90 (Rhizoctonia solani (Rs); 48 hours) [µg/mL]	IC90 ([4]; 48 hours) [µg/mL]	IC90 ([5]; 48 hours) [µg/mL]	IC90 (Septoria tritici (St); 48 hours) [µg/mL]	IC90 ([6]; 48 hours) [µg/mL]	MIC (C. krusei ATCC 6258) [µg/mL]	MIC [7] [µg/mL]	MIC (C. albicans ATCC 90028) [µg/mL]	IC90 (Diplodia maydis (Dm); 48 h) [µg/mL]	IC90 ([1]; 48 h) [µg/mL]	IC90 (Botrtyis cinerea (Bc); 48 h) [µg/mL]	Barley Powdery Mildew Control at 10 ppm [2]	IC90 (Rhizoctonia solani (Rs); 48 h) [µg/mL]	IC50 (Fungal ACC2) [nM]	pest or weed control at 50 ppm ([3]; foliar) [%]	pest or weed control at 50 ppm [3, 8] [%]	also measured
COCCO[C@@H](Cn1c(=O)n([C@H]2CCNC2=O)c(=O)c2c(C)c(-n3nccn3)sc21)c1cc(F)ccc1OC [Compound I-25, 1-((R)-2-(5-fluoro-2-methoxyphenyl)-2-(2-methoxy-ethoxy)ethyl)-5-methyl-3-((S)-2-oxopyrrolidin-3-yl)-6-(2H-1,2,3-triazol-2-yl)thieno[2,3-d]pyrimidine-2,4(1H,3H)-dione]	10 to 100	–	–	–	–	–	–	–	–	–	–	–	> 50	10 (≈ 17.9 µM)	> 50	D (provided a compound having <25% control of barley powdery mildew)	> 50	2 to 10	50 to 69	–	IC90 ([4]; 48 h): > 50 µg/mL; IC90 ([5]; 48 h): > 50 µg/mL; IC90 (Septoria tritici (St); 48 h): > 50 µg/mL; IC90 ([6]; 48 h): > 50 µg/mL
COCCO[C@@H](Cn1c(=O)n([C@@H]2CCNC2=O)c(=O)c2c(C)c(-n3nccn3)sc21)c1cc(F)ccc1OC [Compound I-26, 1-((R)-2-(5-fluoro-2-methoxyphenyl)-2-(2-methoxy-ethoxy)ethyl)-5-methyl-3-((R)-2-oxopyrrolidin-3-yl)-6-(2H-1,2,3-triazol-2-yl)thieno[2,3-d]pyrimidine-2,4(1H,3H)-dione]	2 to 10	–	–	–	–	–	–	–	–	–	–	–	> 50	2 (≈ 3.58 µM)	10 (≈ 17.9 µM)	D (provided a compound having <25% control of barley powdery mildew)	> 50	0.7 to 2	70 to 84	–	IC90 ([4]; 48 h): > 50 µg/mL; IC90 ([5]; 48 h): > 50 µg/mL; IC90 (Septoria tritici (St); 48 h): > 50 µg/mL; IC90 ([6]; 48 h): 10 µg/mL (≈ 17.9 µM)
COc1ccc(F)cc1[C@H](Cn1c(=O)n([C@H]2CCCN(C(C)C)C2=O)c(=O)c2c(C)c(-n3nccn3)sc21)OCCO [Compound I-74, 1-((R)-2-(5-fluoro-2-methoxyphenyl)-2-(2-hydroxy-ethoxy)ethyl)-3-((S)-1-isopropyl-2-oxopiperidin-3-yl)-5-methyl-6-(2H-1,2,3-triazol-2-yl)thieno[2,3-d]pyrimidine-2,4(1H,3H)-dione]	10 to 100	10 (≈ 16.6 µM)	2 (≈ 3.33 µM)	2 (≈ 3.33 µM)	2 (≈ 3.33 µM)	10 (≈ 16.6 µM)	> 50	> 50	2 (≈ 3.33 µM)	–	–	–	–	–	–	D (provided a compound having <25% control of barley powdery mildew)	–	–	–	70 to 84	–
